Literature values, collected in patent US20240238319A1, “CEREAL-BASED COMPOSITIONS WITH A MIX OF GALACTO-OLIGOSACCHARIDES/FRUCTO- OLIGOSACCHARIDES AND USES THEREOF FOR IMPROVING IRON ABSORPTION” (COMPAGNIE GERVAIS DANONE, priority 2021, published 2024).

Conditions: when providing at least 80% of the WHO recommended dietary allowance

[Fe] [iron]
increased risk of diarrhea: 15%
